Measurements from patent US20200010489A1, “ZWITTERIONIC SILATRANE-BASED MATERIAL AND ANTIFOULING SUBSTRATE CONTAINING SAME” (National Central University, priority 2018, published 2020).

Assay: Chemical stability test of dry solid powders (FTIR, photographs)
Format: physicochemical
Settings: RH=79%
Description: The dry solid powders of SBSi and SBSiT obtained above are placed in a laboratory environment (RH=79%, temperature=24° C.) for 24 hours, and the chemical stabilities of SBSi and SBSiT are examined by Fourier transform infrared spectroscopy (FTIR). Referring to FIG. 1A, signals is centered at 1050 and 1612 cm^−1 corresponding to Vas(SO3^−) and Vb(N(CH3)^+), respectively, so as to ensure that all samples have a sulfobetaine moiety.

## CO[Si](CCC[N+](C)(C)CCCS(=O)(=O)[O-])(OC)OC [SBSi, sulfobetaine silane, reference compound]
Dry solid powder, temperature=24° C.
  FTIR spectra / absorption intensity after storage for 24 hours compared with before storage: significantly lower
Moisture environment, 24° C.
  appearance of solid after storage for 24 hours (hygroscopic properties): clearly deliquescent
